The results in this text go back to ChEMBL document CHEMBL1201862, “PubChem BioAssay data set” (2004).

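Five concentrations, 48 hours, 96-well plates. Here, GI50 denotes the concentration required for 50% inhibition of growth.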 Activity calls are given as the source filed them. Cut-off read from the data, not from the text of the source: active = GI50 up to about 1.1 µM and inactive = higher.

Among the test systems are 786-0; A498; ACHN; HL-60; HT-29; Hs-578T; KM12; M14; MDA-MB-231; MOLT-4; NCI/ADR-RES; OVCAR-3; OVCAR-5; SF-268; SK-MEL-2; SNB-75; SR; SW-620; UACC-257.
Holding throughout (test): NCI anticancer screen, dose series, 48 h

As to `CCOC(=O)c1nc2cc(C(F)(F)F)ccc2nc1Nc1ccc(Cl)c(Cl)c1`, the GI50 is > 100 µM (inactive) with 786-0; > 100 µM (inactive) with A498; > 100 µM (inactive) in the assay with ACHN; 31.8 µM (inactive) with HL-60; 66.8 µM (inactive) in the assay on HT-29; > 100 µM (inactive) with Hs-578T. Moreover, the GI50 was 65 µM (inactive) in the assay on KM12; > 100 µM (inactive) in the assay with M14; > 100 µM (inactive) in the assay on MDA-MB-231; > 100 µM (inactive) in the assay with MOLT-4; > 100 µM (inactive) with NCI/ADR-RES; > 100 µM (inactive) with OVCAR-3. Moreover, the GI50 is > 100 µM (inactive) in the assay with OVCAR-5; > 100 µM (inactive) with SF-268; > 100 µM (inactive) in the assay on SK-MEL-2; 58.1 µM (inactive) in the assay with SNB-75; 49.9 µM (inactive) with SR; 73.3 µM (inactive) with SW-620. In addition, in the assay on UACC-257, the GI50 is > 100 µM (inactive).
Take `CC(=O)O[C@H]1CC[C@@]2(C)C(=CC[C@@H]3[C@@H]2CC[C@](C)(c2nnc(C)o2)[C@H]3CC#N)C1`: the GI50 in the assay with 786-0 was > 100 µM (inactive); with A498 it was > 100 µM (inactive); in the assay with ACHN, > 100 µM (inactive); in the assay with HL-60, 61.9 µM (inactive); with HT-29, > 100 µM (inactive); in the assay on Hs-578T it was 0.0735 µM (active). Besides, the GI50 in the assay on KM12, with M14, with MDA-MB-231, with MOLT-4, with NCI/ADR-RES and in the assay with OVCAR-3 was > 100 µM (inactive) in each case. The GI50 was > 100 µM (inactive) in the assay with OVCAR-5; > 100 µM (inactive) with SF-268; > 100 µM (inactive) with SK-MEL-2; 51.6 µM (inactive) with SNB-75; > 100 µM (inactive) with SR; > 100 µM (inactive) in the assay on SW-620. Also, the GI50 in the assay with UACC-257 is > 100 µM (inactive).
As for `Cn1c(-c2ccc[se]2)ccc1-c1ccc(CO)[se]1`, the GI50 in the assay with 786-0 is 25.6 µM (inactive); with A498 it was 0.0389 µM (active); in the assay on ACHN it was 23.2 µM (inactive); in the assay with HL-60, 10 µM (inactive); with Hs-578T, 33 µM (inactive); in the assay on KM12, 32.1 µM (inactive). The GI50 is > 66.2 µM (inactive) with M14; 32.6 µM (inactive) with MDA-MB-231; 21.1 µM (inactive) with MOLT-4; 9.48 µM (inactive) in the assay with NCI/ADR-RES; 0.0348 µM (active) in the assay with OVCAR-3; < 0.0209 µM (active) with OVCAR-5. Also, the GI50 in the assay with SF-268 was 44 µM (inactive); in the assay with SK-MEL-2, 34.7 µM (inactive); with SNB-75 it was > 49.4 µM (inactive); with SR, 10.4 µM (inactive); in the assay with SW-620, 0.133 µM (active); in the assay on UACC-257 it was 0.0461 µM (active).
`O=C(/C=C/c1ccc(OCc2cccc(Cl)c2)cc1)NO`: the GI50 in the assay with 786-0 is 10.7 µM (inactive); in the assay with A498 it was 12.1 µM (inactive); with ACHN, 11.3 µM (inactive); with HL-60, 11.1 µM (inactive); with HT-29, 13.6 µM (inactive); in the assay with Hs-578T, 35 µM (inactive). Moreover, the GI50 in the assay with KM12 is 16.5 µM (inactive); in the assay with M14 it was 21 µM (inactive); with MDA-MB-231, 19.7 µM (inactive); in the assay with MOLT-4 it was 2.67 µM (inactive); in the assay on NCI/ADR-RES, 5.78 µM (inactive); in the assay on OVCAR-3, 19.2 µM (inactive). Also, the GI50 in the assay on OVCAR-5 is 13.9 µM (inactive); in the assay on SF-268, 24.3 µM (inactive); in the assay with SK-MEL-2, 18 µM (inactive); with SNB-75 it was 20.4 µM (inactive); with SR, 3.55 µM (inactive); in the assay with SW-620 it was 10.1 µM (inactive). Also, the GI50 in the assay with UACC-257 was 38 µM (inactive).
For `CCOC(=O)c1ccc(C(=O)/C(C(C)=O)=C2\CCCN2C)n1C`, the GI50 in the assay on 786-0 is > 100 µM (inactive); with A498, 65.8 µM (inactive); with ACHN, > 100 µM (inactive); with HL-60, 18.5 µM (inactive); in the assay on Hs-578T it was > 100 µM (inactive); in the assay on KM12, 29.1 µM (inactive). Further, the GI50 in the assay on M14 is > 100 µM (inactive); in the assay on MDA-MB-231 it was 27.5 µM (inactive); in the assay with MOLT-4, 23.1 µM (inactive); with NCI/ADR-RES it was 83.8 µM (inactive); in the assay with OVCAR-3 it was 99.8 µM (inactive); with OVCAR-5 it was > 100 µM (inactive). Besides, the GI50 in the assay on SF-268 is > 100 µM (inactive); in the assay on SK-MEL-2 it was > 100 µM (inactive); with SNB-75, 10.9 µM (inactive); in the assay with SR, 28.9 µM (inactive); in the assay on SW-620, 69.7 µM (inactive); in the assay with UACC-257, > 100 µM (inactive).
Consider `Cc1ccc([N+](=O)[O-])cc1S(=O)(=O)Nc1ccc(C2=NN(S(=O)(=O)c3cc([N+](=O)[O-])ccc3C)C(c3cccs3)C2)cc1` (stereo not drawn), for which the GI50 was 44.2 µM (inactive) in the assay on 786-0; 13.8 µM (inactive) with A498; 32.4 µM (inactive) in the assay on ACHN; 32.9 µM (inactive) in the assay with HL-60; 38.4 µM (inactive) in the assay on HT-29; 12.8 µM (inactive) in the assay on Hs-578T. Moreover, the GI50 was 30.1 µM (inactive) in the assay with KM12; 36 µM (inactive) with M14; 24.9 µM (inactive) in the assay on MDA-MB-231; 22.4 µM (inactive) with MOLT-4; 31.6 µM (inactive) with NCI/ADR-RES; 19.6 µM (inactive) in the assay with OVCAR-3. Moreover, the GI50 with OVCAR-5 was 74 µM (inactive); in the assay with SF-268, 28.1 µM (inactive); with SK-MEL-2 it was 25.3 µM (inactive); in the assay with SNB-75, > 100 µM (inactive); with SR it was 24.1 µM (inactive); with SW-620 it was 49.7 µM (inactive). Also, the GI50 in the assay on UACC-257 was 31.5 µM (inactive).
Consider `Cc1csc(NCc2ccc(Cl)cc2)n1`, for which the GI50 is 61.4 µM (inactive) in the assay with 786-0; 40.1 µM (inactive) in the assay on A498; 70.1 µM (inactive) in the assay with ACHN; 33.1 µM (inactive) in the assay with HL-60; 47.1 µM (inactive) with HT-29; 54.7 µM (inactive) in the assay with Hs-578T. Moreover, the GI50 in the assay with KM12 was 56.1 µM (inactive); with M14, 45.7 µM (inactive); in the assay with MDA-MB-231 it was 40.6 µM (inactive); in the assay with MOLT-4, 35.9 µM (inactive); with NCI/ADR-RES, 46.6 µM (inactive); with OVCAR-3, 44.7 µM (inactive). Besides, the GI50 was > 100 µM (inactive) in the assay on OVCAR-5; 51.2 µM (inactive) in the assay on SF-268; 50.9 µM (inactive) with SK-MEL-2; 36.3 µM (inactive) with SNB-75; 36.1 µM (inactive) with SR; 69.7 µM (inactive) in the assay on SW-620. Further, the GI50 with UACC-257 was 67.8 µM (inactive).
`Cc1cccc(/C=N\NC(=S)N2CCCCC2)n1`: the GI50 in the assay with 786-0 was 0.027 µM (active); in the assay on A498, 0.0241 µM (active); in the assay on ACHN it was 0.159 µM (active); with HL-60, 0.0112 µM (active); with HT-29, < 0.01 µM (active); in the assay on Hs-578T, 26.5 µM (inactive). The GI50 was 0.13 µM (active) with KM12; < 0.01 µM (active) in the assay with M14; < 0.01 µM (active) in the assay on MDA-MB-231; < 0.01 µM (active) in the assay on MOLT-4; 0.0205 µM (active) with NCI/ADR-RES; < 0.01 µM (active) with OVCAR-3. Also, the GI50 with OVCAR-5 was < 0.01 µM (active); in the assay with SF-268 it was 0.0451 µM (active); in the assay on SK-MEL-2 it was 0.612 µM (active); with SNB-75, 0.611 µM (active); with SR it was 0.019 µM (active); in the assay on SW-620, 0.334 µM (active). For the same compound, in the assay with UACC-257, the GI50 was < 0.01 µM (active).
For `O=C(O)c1ccc(Cc2ccccc2C(=O)O)cc1`, the GI50 in the assay with 786-0, in the assay with A498, in the assay on ACHN, with HL-60, in the assay on HT-29 and with Hs-578T was > 100 µM (inactive) each time. Moreover, the GI50 in the assay with KM12, in the assay on M14, in the assay on MDA-MB-231, in the assay on NCI/ADR-RES, in the assay with OVCAR-3 and in the assay on OVCAR-5 was > 100 µM (inactive) throughout. Moreover, the GI50 in the assay with SF-268 is > 100 µM (inactive); in the assay on SK-MEL-2, > 100 µM (inactive); in the assay on SNB-75 it was 49.5 µM (inactive); with SR it was > 100 µM (inactive); with SW-620, > 100 µM (inactive); in the assay on UACC-257, > 100 µM (inactive).
Consider `C#CCOC(=O)c1ccccc1OC(C)=O`, for which the GI50 in the assay with 786-0, in the assay with A498, with ACHN, with HL-60, with Hs-578T and in the assay on KM12 was > 100 µM (inactive) in each case. The GI50 in the assay on M14, with MDA-MB-231, in the assay on MOLT-4, with NCI/ADR-RES, in the assay with OVCAR-5 and in the assay on SF-268 was > 100 µM (inactive) in each case. Further, the GI50 in the assay with SK-MEL-2, in the assay with SNB-75, in the assay on SR, in the assay with SW-620 and in the assay with UACC-257 was > 100 µM (inactive) each time.
On to `O=C(/C=C/C=C/c1ccccc1)CCc1ccccc1`, for which the GI50 with 786-0 was > 100 µM (inactive); in the assay with A498 it was > 100 µM (inactive); in the assay on HL-60 it was 23.4 µM (inactive); with HT-29, 69.7 µM (inactive); in the assay with Hs-578T, 75.9 µM (inactive); with KM12, 22.1 µM (inactive). Besides, the GI50 was > 100 µM (inactive) in the assay on M14; > 100 µM (inactive) in the assay on MDA-MB-231; 21 µM (inactive) in the assay on MOLT-4; 68.5 µM (inactive) with NCI/ADR-RES; > 100 µM (inactive) with OVCAR-3; > 100 µM (inactive) in the assay on OVCAR-5. Further, the GI50 is 85.1 µM (inactive) in the assay on SF-268; > 100 µM (inactive) in the assay on SK-MEL-2; > 100 µM (inactive) with SNB-75; 20.3 µM (inactive) with SR; 37.6 µM (inactive) with SW-620; > 100 µM (inactive) with UACC-257.
